Literature values as cited in article PMC5950987 (Journal of Diabetes Science and Technology, 2017).

Settings: administered by needle and syringe

For regular human insulin, the “Intraindividual variability of the metabolic effect” value is given as 10-30%.
